Assay results reported in US9453014B2, “Cyclic amide derivatives as inhibitors of 11-β-hydroxysteroid dehydrogenase and uses thereof” (CONNEXIOS LIFE SCIENCES PVT. LTD., priority 2011, dated 2016).

Biological target: T1, human full length HSD11 β 1 (Homo sapiens, UniProt P28845)
T1 construct: transient expression of human full length HSD11 β 1 expression vector; host or cells: CHO cells (transient transfection)
Assay: In Vitro HSD11β1 Inhibition Assay
Type: cell-based
Settings: CHO cells transiently expressing human HSD11β1; 200 nM cortisone+500 uM NADPH overnight; cortisone to cortisol by LC/MS-MS; read-out: 11βHSD1 (IC50)
Experimental: In Vitro HSD11β1 Inhibition Assay:
CHO cells were maintained in Dulbecco's modified Eagle's medium/nutrient mixture F-12 containing 5% fetal bovine serum (v/v) and 2 mM glutamine. Cells were cultured at 37° C. with 5% CO2. For transient expression of human full length HSD11 β 1 expression vector (OriGene Technologies), cells were seeded at a density of 2×10^5 cells/well in a 6-well plate. Transfection was done using Turbofectin8 reagent (OriGene Technologies), according to the protocol provided with the reagent. After 24 hours post-transfection, cells were trypsinized and pooled together before they were re-seeding to 96-well plate at a density of 40000 cells/well. 24 hours after re-seeding, cells were incubated with 200 nM cortisone+500 uM NADPH (or along with small molecule inhibitors) overnight. The enzymatic activity or inhibition of enzyme activity was measured by estimating the conversion of cortisone to cortisol by LC/MS-MS method. The IC50 in nM was calculated from an 8 point log scale of concentration versus inhibition.

T1 sequence (P28845 whole entry): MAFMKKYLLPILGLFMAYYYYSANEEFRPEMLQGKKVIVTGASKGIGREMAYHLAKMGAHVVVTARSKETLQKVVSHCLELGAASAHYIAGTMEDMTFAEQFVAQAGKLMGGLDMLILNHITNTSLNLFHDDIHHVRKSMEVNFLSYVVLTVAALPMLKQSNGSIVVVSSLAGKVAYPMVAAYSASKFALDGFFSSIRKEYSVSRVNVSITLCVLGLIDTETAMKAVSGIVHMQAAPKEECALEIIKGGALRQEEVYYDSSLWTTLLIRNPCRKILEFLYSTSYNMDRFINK

| IC50 | SMILES |
| --- | --- |
| < 100 nM | Cc1cccc2c1c(CCC(=O)N1CCO[C@@H]3CCCC[C@@H]31)cn2C (relative stereo) [Compound 66, 3-(1,4-dimethyl-1H-indol-3-yl)-1-[cis-(4a,8a)-octahydro-4H-1,4-benzoxazin-4-yl]propan-1-one] |
| < 100 nM | Cn1cc(CCC(=O)N2CCCC3CCCCC32)c2c(F)cccc21 (centres unmarked) [Compound 47, 3-(4-fluoro-1-methyl-1H-Indol-3-yl)-1-(octahydroquinolin-1(2H)-yl)propan-1-one] |
| > 250 nM | CC(Oc1c[nH]c2ccccc12)C(=O)N1CCCC2CCCCC21 (centres unmarked) [Compound 25, 2-(1H-indol-3-yloxy)-1-(octahydroquinolin-1(2H)-yl)propan-1-one] |
| < 100 nM | O=C(O)C1CCN(C(=O)CC(c2ccccc2)c2c[nH]c3cc(F)ccc23)C2CCCCC12 (single isomer, unassigned) [Example 159, 1-[3-(6-fluoro-1H-indol-3-yl)-3-phenylpropanoyl]decahydroquinoline-4-carboxylic acid] |
| > 250 nM | CC(Oc1cn(C)c2ccccc12)C(=O)N1CCCC2CCCCC21 (centres unmarked) [Example 100, 2-[(1-methyl-1H-indol-3-yl)oxy]-1-(octahydroquinolin-1(2H)-yl)propan-1-one] |
| > 250 nM | CC(CC(=O)N1CCCC2C(C(=O)O)CCCC21)c1c[nH]c2cccc(-c3ccc(F)cc3)c12 (single isomer, unassigned) [Compound 256, 1-{3-[4-(4-fluorophenyl)-1H-indol-3-yl]butanoyl}decahydroquinoline-5-carboxylic acid] |
| > 250 nM | CC(CC(=O)N1CCCC2(O)CCCCC12)c1c[nH]c2ncccc12 (centres unmarked) [Example 148, 1-(4a-hydroxyoctahydroquinolin-1(2H)-yl)-3-(1H-pyrrolo[2,3-b]pyridin-3-yl)butan-1-one] |
| > 250 nM | CCC(CC(=O)N1CCC(C(=O)O)C2CCCCC21)c1c[nH]c2cccc(Cl)c12 (centres unmarked) [Example 187, 1-[3-(4-chloro-1H-indol-3-yl)pentanoyl]decahydroquinoline-4-carboxylic acid] |
| > 250 nM | CC(CC(=O)N1CCC(C(=O)O)C2CCCCC21)c1c[nH]c2cccc(-c3ccco3)c12 (centres unmarked) [Compound 227, 1-{3-[4-(furan-2-yl)-1H-indol-3-yl]butanoyl}decahydroquinoline-4-carboxylic acid] |
| < 100 nM | O=C(CCc1c[nH]c2cccc(F)c12)N1CCCC2CCCCC21 (centres unmarked) [Compound 44, 3-(4-fluoro-1H-indol-3-yl)-1-(octahydroquinolin-1(2H)-yl)propan-1-one] |
| > 250 nM | O=C(O)C1CCCC2C1CCCN2C(=O)CC(c1cccs1)c1c[nH]c2cccc(Cl)c12 (single isomer, unassigned) [Compound 219, 1-[3-(4-chloro-1H-indol-3-yl)-3-(thiophen-2-yl)propanoyl]decahydroquinoline-5-carboxylic acid] |
| 150 to 200 nM | Cn1cc(C(C)(C)CC(=O)N2CCCC3(C)CCCCC23)c2ccccc21 (centres unmarked) [Compound 59, 3-methyl-3-(1-methyl-1H-indol-3-yl)-1-(4a-methyloctahydroquinolin-1 (2H)-yl)butan-1-one] |
| > 250 nM | CC(CC(=O)N1C(C)CCC2C(C(=O)O)CCCC21)c1c[nH]c2cccc(Cl)c12 (centres unmarked) [Compound 234, 1-[3-(4-chloro-1H-indol-3-yl)butanoyl]-2-methyldecahydroquinoline-5-carboxylic acid] |
| > 250 nM | CC(C)C(CC(=O)N1CCC(C(=O)O)C2CCCCC21)c1c[nH]c2cc(F)ccc12 (single isomer, unassigned) [Example 178, 1-[3-(6-fluoro-1H-indol-3-yl)-4-methylpentanoyl]decahydroquinoline-4-carboxylic acid] |
| 200 to 250 nM | CC(CC(=O)N1CCCC2C(C(=O)O)CCCC21)c1cn(C2CC2)c2cccc(Cl)c12 (centres unmarked) [Compound 261, 1-[3-(4-chloro-1-cyclopropyl-1H-indol-3-yl)butanoyl]decahydroquinoline-5-carboxylic acid] |
| < 100 nM | CC(C)C(CC(=O)N1CCCC2(C)CCCCC12)c1c[nH]c2cccc(F)c12 (centres unmarked) [Example 112, 3-(4-fluoro-1H-indol-3-yl)-4-methyl-1-(4a-methyloctahydroquinolin-1(2H)-yl)pentan-1-one] |
| > 250 nM | CC1CCC2CCCCC2N1C(=O)CCc1nc2ccccc2s1 (centres unmarked) [Example 76, 3-(1,3-benzothiazol-2-yl)-1-(2-methyloctahydroquinolin-1 (2H)-yl)propan-1-one] |
| < 100 nM | CC(CC(=O)N1CCCC2C(C(=O)O)CCCC21)c1c[nH]c2cccc(-c3cccs3)c12 (centres unmarked) [Compound 192, 1-{3-[4-(thiophen-2-yl)-1H-indol-3-yl]butanoyl}decahydroquinoline-5-carboxylic acid] |
| > 250 nM | CO/N=C1/CCN(C(=O)CCc2c[nH]c3ccccc23)C2CCCCC12 (centres unmarked) [Compound 36] |

| IC50 | SMILES |
| --- | --- |
| < 100 nM | CC(CC(=O)N1CCCC2CCCCC21)n1nc2cccc(Cl)c2n1 (centres unmarked) [Example 167, 3-(4-chloro-2H-benzotriazol-2-yl)-1-(octahydroquinolin-1(2H)-yl)butan-1-one] |
| < 100 nM | O=C(O)C1CCC2C(CCCN2C(=O)CC(c2ccccc2)c2c[nH]c3cccc(F)c23)C1 (centres unmarked) [Example 186, 1-[3-(4-fluoro-1H-indol-3-yl)-3-phenylpropanoyl]decahydroquinoline-6-carboxylic acid] |
| > 250 nM | O=C(O)C1CCN(C(=O)CC(c2cccs2)c2c[nH]c3cccc(Cl)c23)C2CCCCC12 (centres unmarked) [Example 184, 1-[3-(4-chloro-1H-indol-3-yl)-3-(thiophen-2-yl)propanoyl]decahydroquinoline-4-carboxylic acid] |
| < 100 nM | CC(CC(=O)N1CCCC2C(C(=O)O)CCCC21)c1c[nH]c2cccc(-c3ccc(F)cc3)c12 (single isomer, unassigned) [Compound 255, 1-{3-[4-(4-fluorophenyl)-1H-indol-3-yl]butanoyl}decahydroquinoline-5-carboxylic acid] |
| 150 to 200 nM | Cc1ccc2[nH]cc(CCC(=O)N3CCCC4CCCCC43)c2c1 (centres unmarked) [Compound 3, 3-(5-methyl-1H-indol-3-yl)-1-(octahydroquinolin-1(2H)-yl)propan-1-one] |
| 100 to 150 nM | Cc1cccc2c1c(CCC(=O)N1CCCC3CCCCC31)cn2C1CC1 (centres unmarked) [Compound 28, 3-(1-cyclopropyl-4-methyl-1H-indol-3-yl)-1-(octahydroquinolin-1(2H) -yl)propan-1-one] |
| > 250 nM | O=C(COc1c[nH]c2ccccc12)N1CCCC2CCCCC21 (centres unmarked) [Example 99, 2-(1H-indol-3-yloxy)-1-(octahydroquinolin-1(2H)-yl)ethanone] |
| < 100 nM | CC(CC(=O)N1CCC2CCCCC21)c1nc2ccccc2s1 (centres unmarked) [Example 142, 3-(1,3-benzothiazol-2-yl)-1-(octahydro-1H-indol-1-yl)butan-1-one] |
| 100 to 150 nM | CC(CC(=O)N1CCCC2CCCCC21)c1c[nH]c2ccccc12 (single isomer, unassigned) [Example 124, 3-(1H-indol-3-yl)-1-(octahydroquinolin-1(2H)-yl)butan-1-one] |
| < 100 nM | CC(CC(=O)N1CCCC2CCCCC21)c1c[nH]c2ccccc12 (centres unmarked) [Compound 1, 3-(1H-indol-3-yl)-1-(octahydroquinolin-1(2H)-yl)butan-1-one] |
| < 100 nM | CC(CC(=O)N1CCC[C@H]2[C@H](C(=O)O)CCC[C@@H]21)c1c[nH]c2cccc(C3CC3)c12 (single isomer, unassigned) [Compound 199, 1-[3-(4-cyclopropyl-1H-indol-3-yl)butanoyl]decahydroquinoline-5-carboxylic acid] |
| 100 to 150 nM | CC(CC(=O)N1CCCC2CC(C(=O)O)CCC21)c1c[nH]c2cccc(C3CC3)c12 (centres unmarked) [Compound 217, 1-[3-(4-cyclopropyl-1H-indol-3-yl)butanoyl]decahydroquinoline-6-carboxylic acid] |
| > 250 nM | O=C(O)C1CCC2CCCCC2N1C(=O)CC(c1ccccc1)c1c[nH]c2cc(F)ccc12 (centres unmarked) [Example 174, 1-[3-(6-fluoro-1H-indol-3-yl)-3-phenylpropanoyl]decahydroquinoline-2-carboxylic acid] |
| > 250 nM | O=C(O)C1CCN(C(=O)CCc2c[nH]c3ccccc23)C2CCCCC12 (centres unmarked) [Compound 50, 1-[3-(1H-indol-3-yl)propanoyl]decahydroquinoline-4-carboxylic acid] |
| 150 to 200 nM | Cn1cc(C(C)(C)CC(=O)N2CCOC3CCCCC32)c2ccccc21 (centres unmarked) [Compound 71, 3-methyl-3-(1-methyl-1H-indol-3-yl)-1-(octahydro-4H-1,4-benzoxazin-4-yl)butan-1-one] |
| > 250 nM | Cc1cccc2nn(C(C)CC(=O)N3CCC(C(=O)O)C4CCCCC43)nc12 (centres unmarked) [Example 169, 1-[3-(4-methyl-2H-benzotriazol-2-yl)butanoyl]decahydroquinoline-4-carboxylic acid] |
| > 250 nM | Cc1cccc2c1nnn2C(CC(=O)N1CCC(C(=O)O)C2CCCCC21)C(C)C (centres unmarked) [Example 183, 1-[4-methyl-3-(4-methyl-1H-benzotriazol-1-yl)pentanoyl]decahydroquinoline-4-carboxylic acid] |
| > 250 nM | O=C(CCc1nc2ccccc2s1)N1CC2CCCCC2C1 (centres unmarked) [Example 82, 3-(1,3-benzothiazol-2-yl)-1-(octahydro-2H-isoindol-2-yl)propan-1-one] |
| > 250 nM | CC(C)(Sc1nc2ccccc2s1)C(=O)N1CCCC2CCCCC21 (centres unmarked) [Example 74, 2-(1,3-benzothiazol-2-ylsulfanyl)-2-methyl-1-(octahydroquinolin-1(2H)-yl)propan-1-one] |
